In ChEMBL document CHEMBL6177939, “The role of silicon in drug discovery: a review” (RSC Med Chem, 2024):
≈ marks a conversion by molar mass, not a printed value.

Assays:
[1] = molecular target: Sigma non-opioid intracellular receptor 1 (Cavia porcellus, UniProt Q60492); test: Binding affinity to guinea pig sigma 1 receptor assessed as inhibition constant
Plutella xylostella = test: Toxicity in Plutella xylostella assessed as lethal dose; assay type: organism-based
Mythimna separata = test: Toxicity in Mythimna separata assessed as lethal dose; assay type: organism-based
Vibrio cholerae = test: Antibacterial activity against Vibrio cholerae assessed as inhibition of bacterial growth; assay type: functional
Bacillus subtilis = test: Antibacterial activity against Bacillus subtilis assessed as reduction in bacterial growth incubated for 12 hrs by broth micr-dilution method; assay type: functional
Staphylococcus aureus [2] = test: Antibacterial activity against Staphylococcus aureus assessed as reduction in bacterial growth incubated for 12 hrs by broth micr-dilution method; assay type: functional
Escherichia coli [3] = test: Antibacterial activity against Escherichia coli assessed as reduction in bacterial growth incubated for 12 hrs by broth micr-dilution method; assay type: functional
HCT-116 = test: Antiproliferative activity against human HCT-116 cells assessed as reduction in cell viability incubated for 72 hrs by MTT assay; assay type: functional, cell-based; details: HCT-116, 72 h
Acetylcholinesterase = Acetylcholinesterase (Homo sapiens, UniProt P22303); test: Inhibition of AChE (unknown origin) using acetylthiocholine iodide as substrate by Ellman's method
BJAB = test: Cytotoxicity against human BJAB cells assessed as lethal dose measured after 48 hrs; assay type: functional; details: read-out: LD50 (the source's name)
Escherichia coli [4] = test: Antibacterial activity against Escherichia coli ATCC 25922 assessed as reduction in cell growth incubated for 18 hrs by two-fold serial dilution method; assay type: functional
Pseudomonas aeruginosa [5] = test: Antibacterial activity against Pseudomonas aeruginosa ATCC 27853 assessed as reduction in cell growth incubated for 18 hrs by two-fold serial dilution method; assay type: functional
Acinetobacter baumannii = test: Antibacterial activity against Acinetobacter baumannii ATCC 19606 assessed as reduction in cell growth incubated for 18 hrs by two-fold serial dilution method; assay type: functional
Staphylococcus aureus [6] = test: Antibacterial activity against Staphylococcus aureus ATCC 25923 assessed as reduction in cell growth incubated for 18 hrs by two-fold serial dilution method; assay type: functional
Fusarium solani = test: Antifungal activity against Fusarium solani ATCC 20327 assessed as reduction in fungal growth incubated for 24 hrs by CLSI micro-dilution method; assay type: functional
Aspergillus niger = test: Antifungal activity against Aspergillus niger ATCC 16888 assessed as reduction in fungal growth incubated for 24 hrs by broth micro-dilution method; assay type: functional
MCF7 = test: Cytotoxicity against human MCF7 cells assessed as reduction in cell viability by XTT assay; assay type: functional, cell-based
Pseudomonas aeruginosa [7] = test: Antibacterial activity against Pseudomonas aeruginosa ATCC 27853 assessed as reduction in bacterial growth incubated for 24 hrs by CLSI micro-dilution method; assay type: functional
HepG2 [8] = test: Cytotoxicity against human HepG2 cells assessed as reduction in cell viability by XTT assay; assay type: functional, cell-based
Penicillium chrysogenum = test: Antifungal activity against Penicillium chrysogenum ATCC 11709 assessed as reduction in fungal growth incubated for 24 hrs by CLSI micro-dilution method; assay type: functional
Bacillus sp. = test: Antibacterial activity against Bacillus sp. ATCC 19986 assessed as reduction in bacterial growth incubated for 24 hrs by CLSI micro-dilution method; assay type: functional; details: Bacillus sp. (in: firmicutes)
[9] = Acute toxicity in po dosed mouse assessed as lethal dose; assay type: organism-based; details: in vivo
Giardia intestinalis = test: Antiparasitic activity against Giardia intestinalis Portland 1 assessed as reduction in parasite growth incubated for 48 hrs by MTT assay; assay type: functional, organism-based; details: Giardia duodenalis, Portland 1, 48 h
Entamoeba histolytica = test: Antiparasitic activity against Entamoeba histolytica HM-1:IMSS assessed as reduction in parasite growth incubated for 48 hrs by MTT assay; assay type: functional, organism-based
HepG2 [10] = test: Antiproliferative activity against human HepG2 cells; assay type: functional, cell-based
NIH3T3 = test: Cytotoxicity against mouse NIH3T3 cells assessed as reduction in cell growth by measuring lethal concentration for 72 hrs by MTT assay; assay type: toxicity, cell-based; details: nih3t3, 72 h
HT-1080 = test: Cytotoxicity against human HT-1080 cells assessed as reduction in cell growth by measuring lethal concentration for 72 hrs by MTT assay; assay type: functional
MG-22A = test: Cytotoxicity against mouse MG-22A cells assessed as reduction in cell growth by measuring lethal concentration for 72 hrs by MTT assay; assay type: functional
[11] = molecular target: Angiotensin-converting enzyme (Homo sapiens, UniProt P12821); test: Inhibition of ACE (unknown origin) using N-[3-(2-furyl)-acryloyl]- L -phenylalanylglycylglycin as substrate incubated for 5 mins
MDA-MB-435 [12] = test: Cytotoxicity against human MDA-MB-435 cells assessed as reduction in cell viability incubated for 48 hrs by SRB assay; assay type: functional, cell-based; details: MDA-MB-435, 48 h
MDA-MB-435 [13] = test: Growth inhibition of human MDA-MB-435 cells measured for 48 hrs by SRB assay; assay type: functional
COLO 205 = test: Antiproliferative activity against human COLO 205 cells assessed as reduction in cell growth incubated for 24 hrs by MTT assay; assay type: functional, cell-based; details: COLO 205, 24 h
A2780 = test: Antiproliferative activity against human A2780 cells assessed as reduction in cell growth incubated for 24 hrs by MTT assay; assay type: functional, cell-based; details: A2780, 24 h
COLO 320 = test: Antiproliferative activity against human COLO 320 cells assessed as reduction in cell growth incubated for 24 hrs by MTT assay; assay type: functional, cell-based; details: COLO 320, 24 h
Aedes aegypti = test: […] activity against Aedes aegypti assessed as protection time at 0.5 microg/cm; assay type: functional
P388 = test: Antiproliferative activity against mouse P388 cells; assay type: functional, cell-based

Angiotensin-converting enzyme, sequence (P12821 whole entry): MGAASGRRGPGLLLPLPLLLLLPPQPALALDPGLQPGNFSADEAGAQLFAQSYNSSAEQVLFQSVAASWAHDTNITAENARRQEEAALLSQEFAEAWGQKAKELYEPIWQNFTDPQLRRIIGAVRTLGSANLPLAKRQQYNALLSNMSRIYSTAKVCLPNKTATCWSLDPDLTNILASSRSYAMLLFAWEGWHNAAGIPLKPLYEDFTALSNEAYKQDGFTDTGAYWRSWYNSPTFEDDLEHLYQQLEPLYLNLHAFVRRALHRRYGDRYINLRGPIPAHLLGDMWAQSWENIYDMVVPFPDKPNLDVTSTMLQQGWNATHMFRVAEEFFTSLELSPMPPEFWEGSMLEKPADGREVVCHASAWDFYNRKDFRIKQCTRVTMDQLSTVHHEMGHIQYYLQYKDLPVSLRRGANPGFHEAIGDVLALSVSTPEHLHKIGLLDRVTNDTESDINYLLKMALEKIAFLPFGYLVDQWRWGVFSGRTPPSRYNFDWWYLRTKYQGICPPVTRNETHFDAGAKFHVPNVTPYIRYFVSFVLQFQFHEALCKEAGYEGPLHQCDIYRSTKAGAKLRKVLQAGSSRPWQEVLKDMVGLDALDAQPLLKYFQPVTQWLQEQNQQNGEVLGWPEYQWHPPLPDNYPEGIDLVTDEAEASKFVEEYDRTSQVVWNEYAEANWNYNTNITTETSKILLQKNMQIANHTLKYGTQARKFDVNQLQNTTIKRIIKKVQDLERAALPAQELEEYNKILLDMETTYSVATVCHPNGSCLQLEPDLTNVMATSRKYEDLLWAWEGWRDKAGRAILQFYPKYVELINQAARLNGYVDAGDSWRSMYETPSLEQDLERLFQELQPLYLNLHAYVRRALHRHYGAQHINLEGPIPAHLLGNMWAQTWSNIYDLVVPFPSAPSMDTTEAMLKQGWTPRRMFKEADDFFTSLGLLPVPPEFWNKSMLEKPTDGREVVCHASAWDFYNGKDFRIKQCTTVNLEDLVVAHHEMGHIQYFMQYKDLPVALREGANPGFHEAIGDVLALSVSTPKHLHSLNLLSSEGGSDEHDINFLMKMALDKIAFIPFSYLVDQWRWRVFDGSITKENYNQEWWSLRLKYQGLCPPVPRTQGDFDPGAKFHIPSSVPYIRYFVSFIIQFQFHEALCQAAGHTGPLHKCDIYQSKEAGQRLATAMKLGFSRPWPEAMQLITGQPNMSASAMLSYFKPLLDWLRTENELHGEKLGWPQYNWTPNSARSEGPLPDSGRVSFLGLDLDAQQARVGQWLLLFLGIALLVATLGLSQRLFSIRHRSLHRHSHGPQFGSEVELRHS
Sigma non-opioid intracellular receptor 1, sequence (Q60492 whole entry): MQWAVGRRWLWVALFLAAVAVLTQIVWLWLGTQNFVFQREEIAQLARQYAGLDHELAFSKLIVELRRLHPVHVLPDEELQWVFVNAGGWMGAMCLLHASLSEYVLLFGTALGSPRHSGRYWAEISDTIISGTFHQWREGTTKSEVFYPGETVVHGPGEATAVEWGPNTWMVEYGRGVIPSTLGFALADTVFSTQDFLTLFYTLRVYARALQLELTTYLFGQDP
Acetylcholinesterase, sequence (P22303 whole entry): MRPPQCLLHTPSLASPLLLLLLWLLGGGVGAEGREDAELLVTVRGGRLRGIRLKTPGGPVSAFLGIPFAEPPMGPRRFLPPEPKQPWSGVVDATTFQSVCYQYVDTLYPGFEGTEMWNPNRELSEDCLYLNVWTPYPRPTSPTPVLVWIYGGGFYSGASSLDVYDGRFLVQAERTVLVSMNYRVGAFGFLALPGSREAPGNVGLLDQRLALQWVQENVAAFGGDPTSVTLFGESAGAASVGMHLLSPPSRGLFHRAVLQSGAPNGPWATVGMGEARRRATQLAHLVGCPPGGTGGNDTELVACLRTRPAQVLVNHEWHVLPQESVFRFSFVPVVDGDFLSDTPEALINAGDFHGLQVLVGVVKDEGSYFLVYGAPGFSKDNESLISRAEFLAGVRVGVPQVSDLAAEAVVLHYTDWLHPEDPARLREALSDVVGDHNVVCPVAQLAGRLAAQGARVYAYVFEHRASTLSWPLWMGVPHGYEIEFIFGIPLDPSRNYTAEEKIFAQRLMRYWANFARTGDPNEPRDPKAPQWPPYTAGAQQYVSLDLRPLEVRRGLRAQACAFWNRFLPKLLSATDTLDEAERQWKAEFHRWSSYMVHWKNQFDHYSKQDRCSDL

SMILES: COc1ccc(CN2CC[Si]3(CCCc4ccccc43)CC2)cc1
- Ki [1]: 0.3 µM

SMILES: CCS(=O)(=O)c1cc([Si](C)(C)C)cnc1-c1nc2cc(S(=O)(=O)C(F)(F)F)ccc2o1
- LC50 (Plutella xylostella): 300 ng/mL (≈ 0.609 µM)
- LC50 (Mythimna separata): 4800 ng/mL (≈ 9.74 µM)

SMILES: Cc1cc(=O)n(Cc2cn(CCC[Si-]345OCC[N+]3(CCO4)CCO5)nn2)c(=O)n1Cc1cn(CCC[Si-]234OCC[N+]2(CCO3)CCO4)nn1 (stereo not drawn)
- MIC50 (Vibrio cholerae): 180 ng/mL (≈ 0.25 µM)
- MIC50 (Bacillus subtilis): 180 ng/mL (≈ 0.25 µM)
- MIC50 (Staphylococcus aureus [2]): 180 ng/mL (≈ 0.25 µM)
- MIC50 (Escherichia coli [3]): 180 ng/mL (≈ 0.25 µM)

SMILES: CC[Si](CC)(CC)OC1OC(=O)C(Br)=C1Br (stereo not drawn)
- IC50 (HCT-116): 1.6 µM

SMILES: C[Si]1(Cl)C=C/C(=N\c2ccccc2)C1=P(c1ccccc1)(c1ccccc1)c1ccccc1 (stereo not drawn)
- IC50 (Acetylcholinesterase): 0.113 µM

SMILES: CC(C)(C)[Si](C)(C)OC[C@H]1C[C@@H](n2cc(Br)c(=O)[nH]c2=O)C=C1CO
- CC50 (BJAB): 46 µM

SMILES: CC1C[N+]23CC(C)O[Si-]2(CCCN2C(=O)c4ccccc4C2=O)(O1)OC(C)C3 (stereo not drawn)
- MIC (Escherichia coli [4]): 200 ng/mL (≈ 0.494 µM)
- MIC (Pseudomonas aeruginosa [5]): 200 ng/mL (≈ 0.494 µM)
- MIC (Acinetobacter baumannii): 200 ng/mL (≈ 0.494 µM)
- MIC (Staphylococcus aureus [6]): 200 ng/mL (≈ 0.494 µM)

SMILES: Nc1ccc(O)c(/C=N/CCC[Si-]234OCC[N+]2(CCO3)CCO4)c1 (stereo not drawn)
- MIC (Fusarium solani): 1200 ng/mL (≈ 3.41 µM)
- MIC (Aspergillus niger): 1200 ng/mL (≈ 3.41 µM)
- IC50 (MCF7): 65000 ng/mL (≈ 185 µM)
- MIC (Pseudomonas aeruginosa [7]): 1200 ng/mL (≈ 3.41 µM)
- IC50 (HepG2 [8]): 150000 ng/mL (≈ 427 µM)
- MIC (Penicillium chrysogenum): 1200 ng/mL (≈ 3.41 µM)
- MIC (Bacillus sp.): 1200 ng/mL (≈ 3.41 µM)

SMILES: CCC[Si](C)(COC(N)=O)COC(N)=O
- LD50 [9]: > 1000 mg/kg

SMILES: C(=N\CCNCCC[Si-]123OCC[N+]1(CCO2)CCO3)/c1ccc2ccc3cccc4ccc1c2c34 (stereo not drawn)
- IC50 (Giardia intestinalis): 0.56 µM
- IC50 (Entamoeba histolytica): 56.9 µM

SMILES: C[Si](C)(C)c1cc(C(F)(C(F)(F)F)C(F)(F)F)cc(Br)c1NC(=O)c1cccc(NC(=O)c2ccccc2)c1
- LC50 (Mythimna separata): 2000 ng/mL (≈ 3.15 µM)

SMILES: COc1ccc([Si](C)(C)[C@@H]2[C@H](CC(=O)N3CCC[C@H]3CO)O[C@@]3(C(=O)N(Cc4cccc(I)c4)c4ccccc43)[C@@H]2C)cc1
- EC50 (HepG2 [10]): 16.6 µM

SMILES: CCCCCCCCCCOCC[N+]1(CCC[Si](C)(C)C)CCc2ccccc2C1.[I-] (stereo not drawn)
- LC50 (NIH3T3): 100 ng/mL
- LC50 (HT-1080): 100 ng/mL
- LC50 (MG-22A): 100 ng/mL

SMILES: c1ccc(CCN2CC[Si]3(CCCc4ccccc43)CC2)cc1
- Ki [1]: 0.3 µM

SMILES: CC(C)CC(NC(=O)c1ccccc1)[Si](C)(O)CC(C)C(=O)N1CCC[C@H]1C(=O)O (mixture of isomers)
- IC50 [11]: 0.014 µM

SMILES: CC(C)CC(NC(=O)c1ccccc1)[Si](O)(O)CC(C)C(=O)N1CCC[C@H]1C(=O)O (mixture of isomers)
- IC50 [11]: 3.04 µM

SMILES: CC[C@@]1(O)C(=O)OCc2c1cc1n(c2=O)Cc2c-1nc1ccc(O)cc1c2[Si](C)(C)C(C)(C)C [AR-67]
- IC50 (MDA-MB-435 [12]): 0.014 µM
- GI50 (MDA-MB-435 [13]): 0.021 µM

SMILES: CC[C@@]1(O)C(=O)OCc2c1cc1n(c2=O)Cc2cc3ccccc3nc2-1 [CAMPTOTHECIN]
- IC50 (MDA-MB-435 [12]): 0.015 µM

SMILES: CC[C@@]1(O)C(=O)OCc2c1cc1n(c2=O)Cc2c-1nc1ccccc1c2CC[Si](C)(C)C [COSITECAN]
- IC50 (COLO 205): 0.0015 µM
- IC50 (A2780): 0.0018 µM
- IC50 (COLO 320): 0.0015 µM

SMILES: CCN(CC)C(=O)c1cccc(C)c1 [DIETHYLTOLUAMIDE]
- Time (Aedes aegypti): 616 min

SMILES: CCCC(C)(COC(N)=O)COC(N)=O [MEPROBAMATE]
- LD50 [9]: 700 mg/kg

SMILES: O=C1OC(O)C(Br)=C1Br (stereo not drawn) [MUCOBROMIC ACID]
- IC50 (HCT-116): 1.3 µM

SMILES: C=C1C[C@](OC)([C@H](O)C(=O)N[C@H]2OCO[C@H]3[C@@H]2O[C@H](C[C@H](O)CO)C(C)(C)[C@@H]3OC)O[C@H](C)[C@@H]1C [MYCALAMIDE A]
- IC50 (P388): 0.1 ng/mL (≈ 0.000199 µM)

SMILES: C=C1C[C@](OC)([C@H](O)C(=O)N[C@H]2OCO[C@H]3[C@@H]2O[C@H](C[C@@H](CO)OC)C(C)(C)[C@@H]3OC)O[C@H](C)[C@@H]1C [MYCALAMIDE B]
- IC50 (P388): 0.1 ng/mL (≈ 0.000193 µM)
